Source: PubChem BioAssay (NCI)
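Five compound concentrations were applied to cells in 96-well plates for 48 hours; endpoints were derived by simple linear interpolation of the resulting dose-response curve. The concentration for full growth arrest is given as TGI.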

Assays:
Assay in all cases: DTP human tumour cell line panel, 48 h
TK-10 renal = test system: TK-10 renal
SNB-78 CNS = test system: SNB-78 CNS
XF 498 CNS = test system: XF 498 CNS
OVCAR-8 ovarian = test system: OVCAR-8 ovarian
SK-MEL-2 melanoma = test system: SK-MEL-2 melanoma
MALME-3M melanoma = test system: MALME-3M melanoma
OVCAR-3 ovarian = test system: OVCAR-3 ovarian
SF-295 CNS = test system: SF-295 CNS
SW-620 colon = test system: SW-620 colon
DMS 273 small cell lung = test system: DMS 273 small cell lung

Row | Compound | TGI (TK-10 renal) | TGI (SNB-78 CNS) | TGI (XF 498 CNS) | TGI (OVCAR-8 ovarian) | TGI (SK-MEL-2 melanoma) | TGI (MALME-3M melanoma) | TGI (OVCAR-3 ovarian) | TGI (SF-295 CNS) | TGI (SW-620 colon) | TGI (DMS 273 small cell lung)
1 | COC1[C@H](NC(=O)OC(C)(C)C)C(=O)N1Cc1ccccc1 (some centres not stated) | > 100 µM | > 100 µM | > 100 µM | > 100 µM | > 100 µM | > 100 µM | > 100 µM | > 100 µM | > 100 µM | > 100 µM
2 | CN(C)C(=O)NC(=S)N(C)C | > 100 µM | > 100 µM | > 100 µM | > 100 µM | > 100 µM | > 100 µM | – | > 100 µM | > 100 µM | > 100 µM
3 | CCCCCCCCCCSC(=O)NC | > 100 µM | – | 54 µM | 87.7 µM | 69 µM | > 100 µM | > 100 µM | > 100 µM | > 100 µM | > 100 µM
4 | Clc1ccc(OCc2nnc3n2N=C(c2ccc(Br)cc2)CS3)cc1 | 35.6 µM | 81.1 µM | 21.4 µM | > 100 µM | 66.9 µM | > 100 µM | – | 37.7 µM | > 100 µM | > 100 µM
5 | O=C(N/C(=C\c1ccccc1Cl)c1nc2ccccc2[nH]1)c1ccccc1 | > 100 µM | > 100 µM | 57.5 µM | > 100 µM | 51.8 µM | 74.8 µM | > 100 µM | 43.4 µM | > 100 µM | –
6 | CN(C)CCn1cnc2ncccc2c1=O | > 100 µM | > 100 µM | > 100 µM | > 100 µM | > 100 µM | > 100 µM | > 100 µM | > 100 µM | > 100 µM | > 100 µM
7 | CCOC(=O)C(NO)C(Sc1ccccc1)c1ccc(OC)cc1 (configuration not stated) | > 100 µM | > 100 µM | > 100 µM | > 100 µM | > 100 µM | > 100 µM | > 100 µM | > 100 µM | > 100 µM | > 100 µM
8 | COC(=O)C1C(=O)O[C@@H](c2ccc(OC)c(OC)c2OC)C1C(=O)OC (mixture of isomers) | > 100 µM | > 100 µM | > 100 µM | > 100 µM | – | > 100 µM | > 100 µM | > 100 µM | > 100 µM | > 100 µM
9 | CN(NC1OC(CO)C(O)C(O)C1O)c1ccccc1 (configuration not stated) | > 100 µM | > 100 µM | 30.6 µM | > 100 µM | – | > 100 µM | > 100 µM | > 100 µM | > 100 µM | > 100 µM
10 | COc1cc(-c2ccc(NC(=O)SCCC(=O)O)cc2OC)ccc1NC(=O)SCCC(=O)O | > 100 µM | > 100 µM | > 100 µM | > 100 µM | > 100 µM | > 100 µM | > 100 µM | > 100 µM | > 100 µM | > 100 µM
11 | O=C1C2c3[nH]c4ccccc4c3C3CCCCCC3C2C(=O)N1c1ccccc1 (configuration not stated) | > 100 µM | 70.7 µM | 47.4 µM | 34 µM | 67.2 µM | 41.1 µM | 35.7 µM | > 65.5 µM | > 100 µM | > 100 µM
12 | COc1cc(/C=C/c2ccc(Br)cc2)cc(OC)c1OC | > 100 µM | – | 65.9 µM | 98.3 µM | 64.2 µM | 76.2 µM | 26.4 µM | 40.2 µM | > 100 µM | > 47.5 µM
13 | COc1ccc(S(=O)(=O)N[C@H](C(=O)O)c2ccccc2)cc1 | > 100 µM | > 100 µM | > 100 µM | > 100 µM | > 100 µM | > 100 µM | > 100 µM | > 100 µM | > 100 µM | > 100 µM
14 | CCOc1ccc(OCC)c([P+](c2ccccc2)(c2ccccc2)c2ccccc2)c1 | 12 µM | > 100 µM | 0.542 µM | 12.5 µM | – | 23.3 µM | 2.74 µM | 6.38 µM | 13.1 µM | 1.21 µM
